We go through 27 compounds from US11066392B2, “Inhibitors of indoleamine 2,3-dioxygenase and methods of their use” (BRISTOL-MYERS SQUIBB COMPANY, priority 2017, dated 2021).

Like-named read-outs stand apart in the source and are kept apart here.

In the assay the target is indoleamine 2,3-dioxygenase (IDO) (Homo sapiens, UniProt P14902). The assay can be described thus: HeLa cell-based indoleamine 2,3-dioxygenase (IDO) assay (kynurenine production, IFNγ-stimulated). Particulars: HeLa cells. The protocol: Assessment of inhibitor activity in HeLa cell-based indoleamine 2,3-dioxygenase (IDO) assay. HeLa (ATCC® CCL-2) cells were obtained from the ATCC® and cultured in Dulbecco's Modified Eagle Medium supplemented with 4.5 g/L glucose, 4.5 […] sodium pyruvate (#10-013-CV, Corning), 2 mM L-alanyl-L-glutamine dipeptide (#35050-061, Gibco), 100U/mL penicillin, 100 μg/mL streptomycin (#SV30010, HyClone) and 10% fetal bovine serum (#SH30071.03 HyClone). Cells were maintained in a humidified incubator at 37° C. in 5% CO2. […] After 24 hours, the media was aspirated and replaced with media containing IFNγ (#285-IF/CF, R&D Systems) at a final concentration of 25 ng/mL. A serial dilution of each test compound was added to the cells in a total volume of 200 μL of culture medium. After a further 48 hour incubation, 170 μL of supernatant was transferred from each well to a fresh 96-well plate. 12.1 μL of 6.1N trichloroacetic acid (#T0699, Sigma-Aldrich) was added to each well and mixed, followed by incubation at 65° C. for 20 minutes to hydrolyze N-formylkynurenine, the product of indoleamine 2,3-dioxygenase, to kynurenine. The reaction mixture was then centrifuged for 10 mins at 500×g to sediment the precipitate. 100 μL of the supernatant was transferred from each well to a fresh 96-well plate. 100 μl of 2% (w/v) p-dimethylaminobenzaldehyde (#15647-7, Sigma-Aldrich) in acetic acid (#A6283, Sigma-Aldrich) was added to each well mixed and incubated at room temperature for 20 mins. Kynurenine concentrations were determined by measuring absorbance at 480 nm and calibrating against an L-kynurenine (#K8625, Sigma-Aldrich) standard curve using a SPECTRAMAX® M2e microplate reader (Molecular Devices). The percentage activity at each inhibitor concentration was determined and IC50 values assessed using nonlinear regression. Activity for compounds described herein is provided in Table 1, wherein potency levels are provided as follows: (Potency: IDO IC50: […])
indoleamine 2,3-dioxygenase (IDO), sequence (P14902 whole entry): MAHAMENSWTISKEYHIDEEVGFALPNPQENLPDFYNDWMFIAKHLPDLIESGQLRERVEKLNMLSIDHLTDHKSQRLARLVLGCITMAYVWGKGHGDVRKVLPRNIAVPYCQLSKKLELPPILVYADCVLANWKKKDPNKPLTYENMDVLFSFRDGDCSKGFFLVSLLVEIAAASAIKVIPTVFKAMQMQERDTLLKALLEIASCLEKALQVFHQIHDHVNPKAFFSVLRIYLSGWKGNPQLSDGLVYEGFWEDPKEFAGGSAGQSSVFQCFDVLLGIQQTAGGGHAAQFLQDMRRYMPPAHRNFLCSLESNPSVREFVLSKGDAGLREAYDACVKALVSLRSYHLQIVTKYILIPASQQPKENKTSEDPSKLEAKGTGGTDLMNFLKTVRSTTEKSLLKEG

Setting [1] is: IFNγ 25 ng/mL, 48 hour incubation, read-out: IDO Hela IC50.
[2] abbreviates: potency class, read-out: Patent Potency Hela IC50 A < 10 nM, B > 10 nM, C > 100 nM.

Regarding `CCC(NC(=O)c1ccc(OC)nc1)[C@H]1CC[C@@H](c2ccnc3c(OC)cc(C(F)(F)F)cc32)CC1` (mixture of isomers) [Example 44, (±)-6-methoxy-N-(1-((cis)-4-(8-methoxy-6-(trifluoromethyl)quinolin-4-yl)cyclohexyl)propyl)nicotinamide], the IC50 – broadly, the point on the concentration scale where inhibition reaches its midpoint – under setting [1] came out at 0.01 µM.
For `CC[C@@H](NC(=O)c1ccc(OC)nc1)[C@H]1CC[C@@H](c2cnc3ccccc3c2)CC1` (single isomer, unassigned) [Example 20a, 6-Methoxy-N-(1-(4-(quinolin-3-yl)cyclohexyl)propyl)nicotinamide], under setting [1], the half-inhibitory concentration (IC50) is 0.25 µM.
Regarding `CC[C@@H](NC(=O)c1cnc(OC)nc1)[C@H]1CC[C@@H](c2ccnc3c(F)cccc32)CC1` (single isomer, unassigned) [Example 60b, N-(1-(4-(8-fluoroquinolin-4-yl)cyclohexyl)propyl)-2-methoxypyrimidine-5-carboxamide], the 50% inhibitory concentration (IC50) under setting [1] turned out to be 0.25 µM.
Same read-out and setting: as for `COC[C@H](NC(=O)c1ccc(OC)nc1)[C@H]1CC[C@@H](c2ccnc(OC)c2C(F)F)CC1` (single isomer, unassigned) [Example 51d, N-(1-(4-(3-(difluoromethyl)-2-methoxypyridin-4-yl)cyclohexyl)-2-methoxyethyl)-6-methoxynicotinamide], the figure is 0.1 µM.
On the same count and under the same terms, the value for `CCC(NC(=O)c1ccc(OC)nc1)C1CCC(c2cccc(=O)n2C)CC1` (single isomer, unassigned) [Example 32c, 6-Methoxy-N-(1-(4-(1-methyl-6-oxo-1,6-dihydropyridin-2-yl)cyclohexyl)propyl)nicotinamide] was 0.74 µM; that for `CC[C@@H](NC(=O)c1cnc(OC)nc1)[C@H]1CC[C@@H](c2ccnc(OC)c2F)CC1` (single isomer, unassigned) [Example 21d, N-(1-(4-(3-Fluoro-2-methoxypyridin-4-yl)cyclohexyl)propyl)-2-methoxypyrimidine-5-carboxamide] was 0.38 µM.
Take `CC[C@H](NC(=O)c1cnc(C)nc1)[C@H]1CC[C@H](c2ccnc3c(F)cccc32)CC1` (single isomer, unassigned) [Example 61d, N-(1-(4-(8-fluoroquinolin-4-yl)cyclohexyl)propyl)-2-methylpyrimidine-5-carboxamide]: under setting [1], the IC50 turned out to be 0.02 µM.
Consider `CCC(NC(=O)c1ccc(OC)nc1)C1CCC(c2cccc(OC(F)F)n2)CC1` (single isomer, unassigned) [Example 48a, N-(1-(4-(6-(difluoromethoxy)pyridin-2-yl)cyclohexyl)propyl)-6-methoxynicotinamide], for which, under setting [1], the half-maximal inhibitory concentration (IC50) was determined as 0.36 µM.
As to `CC[C@@H](NC(=O)c1cnc(OC)nc1)[C@H]1CC[C@@H](c2ccnc(OC)c2F)CC1` (single isomer, unassigned) [Example 21c, N-(1-(4-(3-Fluoro-2-methoxypyridin-4-yl)cyclohexyl)propyl)-2-methoxypyrimidine-5-carboxamide], the IC50 under setting [2] is > 0.1 µM.
As for `CCC(NC(=O)c1ccc(OC)nc1)C1CCC(c2ccnc(OC)c2C)CC1` (single isomer, unassigned) [Example 28a, 6-Methoxy-N-(1-((1s,4s)-4-(2-methoxy-3-methylpyridin-4-yl)cyclohexyl)propyl)nicotinamide], the concentration for half-maximal inhibition (IC50) under setting [1] was determined as 0.54 µM.
In the case of `CC[C@H](NC(=O)c1cnc(C)nc1)[C@H]1CC[C@H](c2ccnc3c(F)cccc32)CC1` (single isomer, unassigned) [Example 61b, N-(1-(4-(8-fluoroquinolin-4-yl)cyclohexyl)propyl)-2-methylpyrimidine-5-carboxamide], the IC50 under setting [1] was 0.67 µM.
Same read-out and setting: as for `CCC(NC(=O)c1ccc(OC)nc1)[C@H]1CC[C@@H](c2nccc(C)n2)CC1` (single isomer, unassigned) [Example 49a, (±)-6-methoxy-N-(1-(4-(4-methylpyrimidin-2-yl)cyclohexyl)propyl)nicotinamide], the figure is 0.07 µM.
With `CCC(NC(=O)c1ccc(OC)nc1)C1CCC(c2ccnc(OC)c2C)CC1` (single isomer, unassigned) [Example 28b, 6-Methoxy-N-(1-((1s,4s)-4-(2-methoxy-3-methylpyridin-4-yl)cyclohexyl)propyl)nicotinamide], the half-maximal inhibitory concentration (IC50) under setting [2] was < 0.01 µM.
In the case of `[2H]C([2H])([2H])Oc1ccc(C(=O)NC(CC)[C@H]2CC[C@@H](c3ccnc(OC)c3C(F)F)CC2)cn1` (mixture of isomers) [Example 65, (±)-N-(1-((1s,4s)-4-(3-(difluoromethyl)-2-methoxypyridin-4-yl)cyclohexyl)propyl)-6-(methoxy-d3)nicotinamide], the half-maximal inhibitory concentration (IC50) under setting [2] was < 0.01 µM.
`COCCOCC(NC(=O)c1cnc(OC)nc1)C1CCC(c2ccnc3ccc(F)cc23)CC1` (single isomer, unassigned) [Example 16b, N-(1-((1s,4s)-4-(6-Fluoroquinolin-4-yl)cyclohexyl)-2-(2-methoxyethoxy)ethyl)-2-methoxypyrimidine-5-carboxamide]: the IC50 under setting [2] was < 0.01 µM.
With `CCC(NC(=O)c1ccc(OC)nc1)C1CCC(c2ccnc3c(F)cc(F)cc23)CC1` (single isomer, unassigned) [Example 57c], the IC50 under setting [1] is 0.13 µM.
`COCC(NC(=O)c1ccc(OC)nc1)C1CCC(c2ccnc3ccc(C(F)(F)F)cc23)CC1` (single isomer, unassigned) [Example 12b, 6-Methoxy-N-(2-methoxy-1-((1s,4s)-4-(6-(trifluoromethyl)quinolin-4-yl)cyclohexyl)ethyl)nicotinamide]: the half-maximal inhibitory concentration (IC50) under setting [2] is < 0.01 µM.
As for `CCC(NC(=O)c1ccc(OC)nc1)C1CCC(c2ccnc3ncccc23)CC1` (mixture of isomers) [Example 52, (+/−)-Cis and trans N-(1-(4-(1,8-naphthyridin-4-yl)cyclohexyl)propyl)-6-methoxynicotinamide], the IC50 under setting [1] is 0.03 µM.
Take `CCC(NC(=O)c1ccc(OC)nc1)C1CCC(c2cccc(C)n2)CC1` (single isomer, unassigned) [Example 46c, 6-methoxy-N-(1-(4-(6-methylpyridin-2-yl)cyclohexyl)propyl)nicotinamide]: the IC50 under setting [2] was > 0.1 µM.
In the case of `CC[C@@H](NC(=O)c1ccc(OC)nc1)[C@H]1CC[C@@H](c2cnc3ccccc3c2)CC1` (single isomer, unassigned) [Example 20d, 6-Methoxy-N-(1-(4-(quinolin-3-yl)cyclohexyl)propyl)nicotinamide], the half-maximal inhibitory concentration (IC50) under setting [1] is 0.06 µM.
With `CCC(NC(=O)c1ccc(=O)[nH]c1)C1CCC(c2ccnc(OC)c2C(F)F)CC1` (single isomer, unassigned) [Example 63-1, N-(1-((1s,4s)-4-(3-(difluoromethyl)-2-methoxypyridin-4-yl)cyclohexyl)propyl)-6-oxo-1,6-dihydropyridine-3-carboxamide], the IC50 under setting [2] is > 0.1 µM.
With `COCCOCC(NC(=O)c1cnc(OC)nc1)C1CCC(c2ccnc3ccc(F)cc23)CC1` (single isomer, unassigned) [Example 16a, N-(1-((1s,4s)-4-(6-Fluoroquinolin-4-yl)cyclohexyl)-2-(2-methoxyethoxy)ethyl)-2-methoxypyrimidine-5-carboxamide], under setting [1], the half-maximal inhibitory concentration (IC50) came out at 0.04 µM.
As to `CC[C@H](NC(=O)c1ccc(OC)nc1)[C@H]1CC[C@@H](c2cncc(OC)c2)CC1` (single isomer, unassigned) [Example 50d, 6-methoxy-N-(1-(4-(5-methoxypyridin-3-yl)cyclohexyl)propyl)nicotinamide], under setting [1], the IC50 stood at 0.22 µM.
With `CCC(NC(=O)c1ccc(OC)nc1)C1CCC(c2ccnc(OC)c2C(F)F)CC1` (single isomer, unassigned) [Example 24a, N-(1-((1s,4s)-4-(3-(Difluoromethyl)-2-methoxypyridin-4-yl)cyclohexyl)propyl)-6-methoxynicotinamide], under setting [2], the IC50 is < 0.01 µM.
With `CCC(NC(=O)c1ccc(OC)nc1)C1CCC(c2ccnc(F)c2C)CC1` (mixture of isomers) [Example 55, (+/−)-Cis and trans-N-(1-(4-(2-fluoro-3-methylpyridin-4-yl)cyclohexyl)propyl)-6-methoxynicotinamide], the half-inhibitory concentration (IC50) under setting [2] is < 0.01 µM.
As for `CCC(NC(=O)c1ccc(N)nc1)[C@H]1CC[C@@H](c2ccnc(OC)c2C)CC1` (single isomer, unassigned) [Example 29b, 6-Amino-N-(1-((1s,4s)-4-(2-methoxy-3-methylpyridin-4-yl)cyclohexyl)propyl)nicotinamide], the half-inhibitory concentration (IC50) under setting [1] turned out to be 0.01 µM.
`CC[C@@H](NC(=O)c1ccc(OC)nc1)[C@H]1CC[C@@H](c2ccnc3c(F)cccc32)CC1` (single isomer, unassigned) [Example 59d, N-(1-(4-(8-fluoroquinolin-4-yl)cyclohexyl)propyl)-6-methoxynicotinamide]: the IC50 under setting [1] stood at 0.11 µM.
